Reference: patent publication US11161839B2, “2-quinolone derived inhibitors of BCL6” (Cancer Research Technology Limited, priority 2017, dated 2021)

Target: human BCL6 BTB domain (Trx-6xHis-BCL6) (Homo sapiens (Human), UniProt P41182)
Assay: HTRF in vitro assay (BCL6 BTB domain / BCOR-AF633 peptide)
Type: binding
Conditions: for IC50: read-out: HTRF pIC50 (converted)
[1] = further generated data (Table 1b), 1 nM Trx-6xHis-BCL6, 0.5 nM anti-6xHis-Terbium cryptate
[2] = initially generated data (Table 1a), 10 nM Trx-6xHis-BCL6, 1 nM anti-6xHis-Terbium cryptate

Procedure: The % inhibition at each concentration was calculated by normalising FRET ratio to the appropriate high (DMSO with all reagents) and low (DMSO without BCL6) controls.

Structure (SMILES) | HTRF pIC50 [1] | HTRF pIC50 [2] | IC50 [1]
Cn1cc(CNC(=O)C(C)(C)Nc2cc(=O)n(C)c3ccc(Nc4ccnc(Cl)c4C#N)cc23)cn1 [Example 11c, 2-((6--((2-chloro-3-cyanopyridin-4-yl)amino)-1-methyl-2-oxo-1,2-dihydroquinolin-4-yl)amino)-2-methyl-N-((1-methyl-1H-pyrazol-4-yl)methyl)propanamide] | 6.42 |  | 
COCCNC(=O)[C@@H](C)Nc1cc(=O)n(C)c2ccc(Nc3ccnc(Cl)c3C#N)cc12 [Example 3e, (R)-2-((6-((2-chloro-3-cyanopyridin-4-yl)amino)-1-methyl-2-oxo-1,2-dihydroquinolin-4-yl)amino)-N-(2-methoxyethyl)propanamide] | 6.42 | 6.59 | 
COc1ncc(Cl)c(Nc2ccc3c(c2)c(N[C@H](CO)C2CC2)cc(=O)n3C)n1 [Example 11f, (S)-6-((5-chloro-2-methoxypyrimidin-4-yl)amino)-4-((1-cyclopropyl-2-hydroxyethyl)amino)-1-methylquinolin-2(1H)-one] | 6.13 |  | 
CC(Nc1cc(=O)n(C)c2ccc(Nc3ccnc(Cl)c3C#N)cc12)c1nccs1 (centres unmarked) [Example 1s, 2-chloro-4-[[1-methyl-2-oxo-4-(1-thiazol-2-ylethylamino)-6-quinolyl]amino]pyridine-3-carbonitrile] | 6.07 | 6.03 | 
Cn1c(=O)cc(NC(C)(C)c2ncccn2)c2cc(Nc3cc(C(=O)N4CC5(CCO5)C4)nc(Cl)c3C#N)ccc21 [Example 8g, 2-chloro-4-((1-methyl-2-oxo-4-((2-(pyrimidin-2-yl)propan-2-yl)amino)-1,2-dihydroquinolin-6-yl)amino)-6-(1-oxa-6-azaspiro[3.3]heptane-6-carbonyl)nicotinonitrile] | 7.82 |  | 
Cn1c(=O)cc(NC2CC2(C)C)c2cc(Nc3cc(C(=O)O)nc(Cl)c3C#N)ccc21 (centres unmarked) [Example 9j, 6-chloro-5-cyano-4-((4-((2,2-dimethylcyclopropyl)amino)-1-methyl-2-oxo-1,2-dihydroquinolin-6-yl)amino)picolinic acid] | 6.49 |  | 
CNC(=O)c1cc(Nc2ccc3c(c2)c(NC2CCC2OC)cc(=O)n3C)c(C#N)c(Cl)n1 (racemic) [Example 23b, rac-6-chloro-5-cyano 4-((4-(((1R,2R)-2-methoxycyclobutyl)amino)-1-methyl-2-oxo-1,2-dihydroquinolin-6-yl)amino)-N-methylpicolinamide or rac-6-chloro-5-cyano-4-((4-(((1R,2S)-2-methoxycyclobutyl)amino)-1-methyl-2-oxo-1,2-dihydroquinolin-6-yl)amino)-N-methylpicolinamide] |  |  | 468 nM
Cn1c(=O)cc(NC2(C)CCCC2)c2cc(Nc3cc(C(=O)O)nc(Cl)c3C#N)ccc21 [Example 2d, 6-chloro-5-cyano-4-[[1-methyl-4-[(1-methylcyclopentyl)amino]-2-oxo-6-quinolyl]amino]pyridine-2-carboxylic acid] | 6.65 | 6.51 | 
Cc1nnc(C(C)Nc2cc(=O)n(C)c3ccc(Nc4ccnc(Cl)c4C#N)cc23)o1 (centres unmarked) [Example 3l, 2-Chloro-4-((1-methyl-4-((1-(5-methyl-1,3,4-oxadiazol-2-yl)ethyl)amino)-2-oxo-1,2-dihydroquinolin-6-yl)amino)nicotinonitrile] | 5.93 | 6.16 | 
C[C@@H](Nc1cc(=O)n(C)c2ccc(Nc3ccnc(Cl)c3C#N)cc12)C(=O)NC1CCCC1 [Example 3d, (R)-2-((6-((2-Chloro-3-cyanopyridin-4-yl)amino)-1-methyl-2-oxo-1,2-dihydroquinolin-4-yl)amino)-N-cyclopentylpropanamide] | 6.61 | 6.62 | 
Cn1c(=O)cc(NC2(C)CC2)c2cc(Nc3cc(C(=O)O)nc(Cl)c3C#N)ccc21 [Example 2c, 6-chloro-5-cyano-4-[[1-methyl-4-[(1-methylcyclopropyl)amino]-2-oxo-6-quinolyl]amino]pyridine-2-carboxylic acid] | 6.38 | 6.36 | 
C[C@@H](CCO)Nc1cc(=O)n(C)c2ccc(Nc3ccnc(Cl)c3C#N)cc12 [Example 3n, (S)-2-Chloro-4-((4-((4-hydroxybutan-2-yl)amino)-1-methyl-2-oxo-1,2-dihydroquinolin-6-yl)amino)nicotinonitrile] | 6.01 | 6.31 | 
COc1cc(Nc2ccc3c(c2)c(N[C@H](CO)C2CC2)cc(=O)n3C)c(Cl)cn1 [Example 15c, (S)-6-((5-chloro-2-methoxypyridin-4-yl)amino)4-4((1-cyclopropyl-2-hydroxyethyl)amino)-1-methylquinoline-2(1H)-one] |  |  | 575 nM
CC(Nc1cc(=O)n(C)c2ccc(Nc3ccnc(Cl)c3C#N)cc12)c1cnccn1 (centres unmarked) [Example 1j, 2-chloro-4-[[1-methyl-2-oxo-4-(1-pyrazin-2-ylethylamino)-6-quinolyl]amino]pyridine-3-carbonitrile] | 6.29 | 6.27 | 
CC(Nc1cc(=O)n(C)c2ccc(Nc3ccnc(Cl)c3C#N)cc12)c1ccncn1 (centres unmarked) [Example 1q, 2-chloro-4-[[1-methyl-2-oxo-4-(1-pyrimidin-4-ylethylamino)-6-quinolyl]amino]pyridine-3-carbonitrile] | 6.29 | 6.10 | 
COc1cc(Nc2ccnc(Cl)c2C#N)cc2c(NC(C)(C)c3ncccn3)cc(=O)n(C)c12 [Example 10r, 2-chloro-4-((8-methoxy-1-methyl-2-oxo-4-((2-(pyrimidin-2-yl)propan-2-yl)amino)-1,2-dihydroquinolin-6-yl)amino)nicotinonitrile] | 6.32 |  | 
CC(Nc1cc(=O)n(C)c2ccc(Nc3nc(N4CCC5(CCCN(C)C5=O)CC4)ncc3Cl)cc12)c1ncccn1 (centres unmarked) [Example 17g, 9-(5-chloro-4-((1-methyl-2-oxo-4((1-(pyrimidin-2-yl)ethyl)amino)-1,2-dihydroquinolin-6-yl)amino)pyrimidin-2-yl)-2-methyl-2,9-diazaspiro[5.5]undecan-1-one] | 6.24 |  | 
CCNc1cc(=O)n(CCN2C(=O)CCC2=O)c2ccc(Nc3ccnc(Cl)c3C#N)cc12 [Example 1r, 2-chloro-4-[[1-[2-(2,5-dioxopyrrolidin-1-yl)ethyl]-4-(ethylamino)-2-oxo-6-quinolyl]amino]pyridine-3-carbonitrile] | 6.25 | 6.05 | 
CNC(=O)[C@@H](C)Nc1cc(=O)[nH]c2ccc(Nc3ccnc(Cl)c3C#N)cc12 [Example 3p, (R)-2-((6-((2-chloro-3-cyanopyridin-4-yl)amino)-2-oxo-1,2-dihydroquinolin-4-yl)amino)-N-methylpropanamide] | 6.61 | 6.61 | 
Cn1c(=O)cc(N[C@H]2CCOC2)c2cc(Nc3ccnc(Cl)c3C#N)ccc21 [Example 1g, 2-chloro-4-[[1-methyl-2-oxo-4-[[(3S)-tetrahydrofuran-3-yl]amino]-6-quinolyl]amino]pyridine-3-carbonitrile] | 6.13 | 6.10 | 
CCNc1cc(=O)n(C)c2ccc(Nc3cc(C(=O)NC)nc(Cl)c3C#N)cc12 [Example 5, 6-Chloro-5-cyano-4-[[4-(ethylamino)-1-methyl-2-oxo-6-quinolyl]amino]-N-methyl-pyridine-2-carboxamide] | 6.43 | 6.21 | 
Cn1c(=O)cc(NC(C)(C)c2ncccn2)c2cc(Nc3cc(C(=O)N4CC(CC#N)C4)nc(Cl)c3C#N)ccc21 [Example 8h, 2-chloro-6-(3-(cyanomethyl)azetidine-1-carbonyl)-4-((1-methyl-2-oxo-4-((2-(pyrimidin-2-yl)propan-2-yl)amino)-1,2-dihydroquinolin-6-yl)amino)nicotinonitrile] | 7.68 |  | 
CC(CCO)Nc1nc(=O)n(C)c2ccc(Nc3ccnc(Cl)c3C#N)cc12 (centres unmarked) [Example 1k, 2-chloro-4-[[4-[(3-hydroxy-1-methyl-propyl)amino]-1-methyl-2-oxo-quinazolin-6-yl]amino]pyridine-3-carbonitrile] | 5.95 | 6.19 | 
C[C@@H](Nc1cc(=O)n(C)c2ccc(Nc3nc(N4CCC4)ncc3Cl)cc12)C1CC1 [Example 26a, (R)-6-((2-(azetidin-1-yl)-5-chloropyrimidin-4-yl)amino)-4-((1-cyclopropylethyl)amino)-1-methylquinolin-2(1H)-one: formic acid (1:1)] | 6.25 |  | 
C[C@@H](Nc1cc(=O)n(C)c2ccc(Nc3cc(N4CCC(C(=O)N(C)C)CC4)ncc3Cl)cc12)C1CC1 [Example 6i, (R)-1-(5-chloro-4-((4-((1-cyclopropylethyl)amino)-1-methyl-2-oxo-1,2-dihydroquinolin-6-yl)amino)pyridin-2-yl)-N,N-dimethylpiperidine-4-carboxamide] | 6.35 |  | 
CC(CO)Nc1nc(=O)n(C)c2ccc(Nc3ccnc(Cl)c3C#N)cc12 (centres unmarked) [Example 1l, 2-chloro-4-[[4-[(2-hydroxy-1-methyl-ethyl)amino]-1-methyl-2-oxo-quinazolin-6-yl]amino]pyridine-3-carbonitrile] | 5.98 | 6.18 | 
CCNc1cc(=O)n(C)c2ccc(Nc3cc(C(=O)O)nc(Cl)c3C#N)cc12 [Example 4, 6-Chloro-5-cyano-4-[[4-(ethylamino)-1-methyl-2-oxo-6-quinolyl]amino]pyridine-2-carboxylic acid] | 6.07 | 6.06 | 
Cc1nc(C(C)Nc2cc(=O)n(C)c3ccc(Nc4ccnc(Cl)c4C#N)cc23)no1 (centres unmarked) [Example 1h, 2-chloro-4-[[1-methyl-4-[1-(5-methyl-1,2,4-oxadiazol-3-yl)ethylamino]-2-oxo-6-quinolyl]amino]pyridine-3-carbonitrile] | 6.38 | 6.40 | 
CC(Nc1cc(=O)n(C)c2ccc(Nc3ccnc(Cl)c3C#N)cc12)c1nc[nH]n1 (centres unmarked) [Example 1e, 2-chloro-4-[[1-methyl-2-oxo-4-[1-(1H-1,2,4-triazol-3-yl)ethylamino]-6-quinolyl]amino]pyridine-3-carbonitrile] | 6.08 | 6.50 | 
